According to patent US10597364B2, “Anthelmintic compounds, compositions and method of using thereof” (priority 2015, dated 2020):
Like-named read-outs stand apart in the source and are kept apart here.

What was measured:
[1] = test system: microfilaria of Dirofilaria immitis; test: Method C: microfilaria of Dirofilaria immitis motility screen; format: cell-based; details: read-out: inhibition of the microfilaria's motility
Haemonchus contortus = test: Method A: Haemonchus contortus L1 larval development/motility screen in microtitre plate; format: cell-based; details: 96 h, read-out: motility inhibition

| Structure (SMILES) | inhibition at 10 µM ([1]; 24 h) [%] | inhibition at 5 µM (Haemonchus contortus) [%] | other results |
| --- | --- | --- | --- |
| CCCN1CCN(c2ccnc(O[C@H]3CC[C@H](Nc4ccc([N+](=O)[O-])c(C(F)(F)F)c4)CC3)c2)CC1 [Compound 87] | ≥ 90 | ≥ 90 | – |
| O=C(NC1CCCC1)N1CCN(c2cncc(O[C@H]3CC[C@H](Nc4ccc([N+](=O)[O-])c(C(F)(F)F)c4)CC3)c2)CC1 [Compound 82] | ≥ 90 | ≥ 90 | – |
| CCNC(=O)N1CCN(c2ccnc(O[C@H]3CC[C@H](Nc4ccc([N+](=O)[O-])c(C(F)(F)F)c4)CC3)c2)CC1 [Compound 96] | ≥ 90 | ≥ 90 | – |
| O=C(Cc1ccc(F)cc1)N1CCN(c2cc(O[C@H]3CC[C@H](Nc4ccc([N+](=O)[O-])c(C(F)(F)F)c4)CC3)ccn2)CC1 [Compound 46] | ≥ 90 | ≥ 90 | – |
| CCOC(=O)N1CCN(c2cncc(O[C@H]3CC[C@H](Nc4ccc([N+](=O)[O-])c(C(F)(F)F)c4)CC3)c2)CC1 [Compound 38] | – | ≥ 90 | inhibition at 5 ppm ([1]; 24 h): ≥ 90% |
| CCCCN1CCN(c2cncc(O[C@H]3CC[C@H](Nc4ccc([N+](=O)[O-])c(C(F)(F)F)c4)CC3)c2)CC1 [Compound 53] | ≥ 90 | ≥ 90 | – |
| O=[N+]([O-])c1ccc(N[C@H]2CC[C@H](Oc3cc(N4CCN(C(=S)Nc5ccc(F)cc5)CC4)ccn3)CC2)cc1C(F)(F)F [Compound 89] | – | ≥ 90 | inhibition at 5 ppm ([1]; 24 h): ≥ 90% |
| O=C(CC1CCCC1)N1CCN(c2cc(O[C@H]3CC[C@H](Nc4ccc(S(=O)(=O)C(F)(F)F)cc4)CC3)ccn2)CC1 [Compound 188] | ≥ 90 | ≥ 90 | – |
| O=C(OC1CCCC1)N1CCN(c2cncc(O[C@H]3CC[C@H](Nc4ccc([N+](=O)[O-])c(C(F)(F)F)c4)CC3)c2)CC1 [Compound 196, cyclopentyl 4-(5-[[4-[[4-nitro-3-(trifluoromethyl)phenyl]amino]cyclohexyl]oxy]pyridin-3-yl)piperazine-1-carboxylate] | – | ≥ 90 | inhibition at 5 ppm ([1]; 24 h): ≥ 90% |
| O=C(Oc1ccc(F)cc1)N1CCN(c2ccnc(O[C@H]3CC[C@H](Nc4ccc([N+](=O)[O-])c(C(F)(F)F)c4)CC3)c2)CC1 [Compound 30] | – | ≥ 90 | inhibition at 5 ppm ([1]; 24 h): ≥ 90% |
| CCCN1CCN(c2cc(O[C@H]3CC[C@H](Nc4ccc([N+](=O)[O-])c(C(F)(F)F)c4)CC3)ccn2)CC1 [Compound 78] | – | ≥ 90 | inhibition at 10 µM ([1]; 10 μM, 24 hours): ≥ 90% |
| O=[N+]([O-])c1ccc(N[C@H]2CC[C@H](Oc3cc(N4CCN(C(=S)Nc5ccc(C(F)(F)F)cc5)CC4)ccn3)CC2)cc1C(F)(F)F [Compound 68, 4-[2-[(4-[[4-nitro-3-(trifluoromethyl)phenyl]amino]cyclohexyl)oxy]pyridin-4-yl]-N-[4-(trifluoromethyl)phenyl]piperazine-1-carbothioamide] | – | ≥ 90 | inhibition at 5 ppm ([1]; 24 h): ≥ 90% |
| O=C(Nc1ccc(F)cc1)N1CCN(c2cncc(O[C@H]3CC[C@H](Nc4ccc([N+](=O)[O-])c(C(F)(F)F)c4)CC3)c2)CC1 [Compound 106] | – | ≥ 90 | inhibition at 10 µM ([1]; 10 μM, 24 hours): ≥ 90% |
| O=[N+]([O-])c1ccc(N[C@H]2CC[C@H](Oc3cncc(N4CCN(C/C=C/c5ccc(C(F)(F)F)cc5)CC4)c3)CC2)cc1C(F)(F)F [Compound 48] | – | ≥ 90 | inhibition at 5 ppm ([1]; 24 h): ≥ 90% |
| O=C(Cc1ccc(C(F)(F)F)cc1)N1CCN(c2ccnc(O[C@H]3CC[C@H](Nc4ccc([N+](=O)[O-])c(C(F)(F)F)c4)CC3)c2)CC1 [Compound 61] | – | ≥ 90 | inhibition at 5 ppm ([1]; 24 h): ≥ 90% |
| CC(C)(C)NC(=O)N1CCN(c2cncc(O[C@H]3CC[C@H](Nc4ccc([N+](=O)[O-])c(C(F)(F)F)c4)CC3)c2)CC1 [Compound 66] | – | ≥ 90 | inhibition at 5 ppm ([1]; 24 h): ≥ 90% |
| O=[N+]([O-])c1ccc(N[C@H]2CC[C@H](Oc3cncc(N4CCN(c5ccc6cc(C(F)(F)F)ccc6n5)CC4)c3)CC2)cc1C(F)(F)F [Compound 90] | – | ≥ 90 | – |
| N#Cc1ccc(N[C@H]2CC[C@H](Oc3cncc(N4CCN(C(=O)CC5CCCC5)CC4)c3)CC2)cc1C(F)(F)F [Compound 180] | – | ≥ 90 | – |
| CCCCC(=O)N1CCN(c2cncc(O[C@H]3CC[C@H](Nc4ccc([N+](=O)[O-])c(C(F)(F)F)c4)CC3)c2)CC1 [Compound 19, 1-[4-(5-[[4-[[4-nitro-3-(trifluoromethyl)phenyl]amino]cyclohexyl]oxy]pyridin-3-yl)piperazin-1-yl]pentan-1-one] | – | ≥ 90 | – |
| O=[N+]([O-])c1ccc(N[C@H]2CC[C@H](Oc3cc(N4CCN(C(=S)NC5CCCC5)CC4)ccn3)CC2)cc1C(F)(F)F [Compound 81] | – | ≥ 90 | inhibition at 1 ppm ([1]; 24 h): ≥ 90%; inhibition at 5 ppm ([1]; 24 h): ≥ 90% |
| O=C(N1CCN(c2ccnc(O[C@H]3CC[C@H](Nc4ccc([N+](=O)[O-])c(C(F)(F)F)c4)CC3)c2)CC1)C(F)(F)F [Compound 58] | – | ≥ 90 | inhibition at 5 ppm ([1]; 5 ppm, 24 hours): ≥ 90% |
| CCCC(=O)N1CCN(c2cc(O[C@H]3CC[C@H](Nc4ccc([N+](=O)[O-])c(C(F)(F)F)c4)CC3)ccn2)CC1 [Compound 40] | – | ≥ 90 | inhibition at 10 µM ([1]; 10 μM, 24 hours): ≥ 90% |
| O=[N+]([O-])c1ccc(N[C@H]2CC[C@H](Oc3cc(N4CCN(CC5CCCC5)CC4)ccn3)CC2)cc1C(F)(F)F [Compound 47] | ≥ 90 | ≥ 90 | – |
| O=C(Nc1ccc(C(F)(F)F)cc1)N1CCN(c2cncc(O[C@H]3CC[C@H](Nc4ccc([N+](=O)[O-])c(C(F)(F)F)c4)CC3)c2)CC1 [Compound 94] | – | ≥ 90 | – |

| Structure (SMILES) | inhibition at 10 µM ([1]; 24 h) [%] | inhibition at 5 µM (Haemonchus contortus) [%] | other results |
| --- | --- | --- | --- |
| CCCCN1CCN(c2cc(O[C@H]3CC[C@H](Nc4ccc([N+](=O)[O-])c(C(F)(F)F)c4)CC3)ccn2)CC1 [Compound 41] | ≥ 90 | ≥ 90 | – |
| CCCC(=O)N1CCN(c2ccnc(O[C@H]3CC[C@H](Nc4ccc([N+](=O)[O-])c(C(F)(F)F)c4)CC3)c2)CC1 [Compound 39] | – | ≥ 90 | inhibition at 5 ppm ([1]; 24 h): ≥ 90% |
| COCCOCC(=O)N1CCN(c2cc(O[C@H]3CC[C@H](Nc4ccc([N+](=O)[O-])c(C(F)(F)F)c4)CC3)ccn2)CC1 [Compound 72] | ≥ 90 | ≥ 90 | – |
| N#Cc1ccc(N[C@H]2CC[C@H](Oc3cncc(N4CCN(Cc5ccc(C(F)(F)F)cc5)CC4)c3)CC2)cc1C(F)(F)F [Compound 181] | ≥ 90 | ≥ 90 | – |
| N#Cc1ccc(N[C@H]2CC[C@H](Oc3cc(N4CCN(C(=O)CC5CCCC5)CC4)ccn3)CC2)cc1C(F)(F)F [Compound 183] | ≥ 90 | ≥ 90 | – |
| CC(C)(C)OC(=O)N1CCN(c2ccc(O[C@H]3CC[C@H](Nc4ccc([N+](=O)[O-])c(C(F)(F)F)c4)CC3)cn2)CC1 [Compound 83] | – | ≥ 90 | inhibition at 5 ppm ([1]; 24 h): ≥ 90% |
| CCC(=O)N1CCN(c2cncc(O[C@H]3CC[C@H](Nc4ccc([N+](=O)[O-])c(C(F)(F)F)c4)CC3)c2)CC1 [Compound 64] | – | ≥ 90 | inhibition at 5 ppm ([1]; 24 h): ≥ 90% |
| O=[N+]([O-])c1ccc(N[C@H]2CC[C@H](Oc3cncc(N4CCN(C(=S)NC5CCCC5)CC4)c3)CC2)cc1C(F)(F)F [Compound 79] | – | ≥ 90 | inhibition at 5 ppm ([1]; 24 h): ≥ 90% |
| CCCNC(=O)N1CCN(c2ccnc(O[C@H]3CC[C@H](Nc4ccc([N+](=O)[O-])c(C(F)(F)F)c4)CC3)c2)CC1 [Compound 85] | – | ≥ 90 | inhibition at 5 ppm ([1]; 5 ppm, 24 hours): ≥ 90% |
| O=C(CC1CCCC1)N1CCN(c2ccnc(O[C@H]3CC[C@H](Nc4ccc(S(=O)(=O)C(F)(F)F)cc4)CC3)c2)CC1 [Compound 163] | – | ≥ 90 | – |
| O=[N+]([O-])c1ccc(N[C@H]2CC[C@H](Oc3ccnc(N4CCN(C/C=C/c5ccc(C(F)(F)F)cc5)CC4)c3)CC2)cc1C(F)(F)F [Compound 76] | – | ≥ 90 | inhibition at 5 ppm ([1]; 24 h): ≥ 90% |
| CCCOC(=O)N1CCN(c2cc(O[C@H]3CC[C@H](Nc4ccc(C#N)c(C(F)(F)F)c4)CC3)ccn2)CC1 [Compound 176] | – | ≥ 90 | – |
| O=C(CC(F)(F)F)N1CCN(c2cc(O[C@H]3CC[C@H](Nc4ccc([N+](=O)[O-])c(C(F)(F)F)c4)CC3)ccn2)CC1 [Compound 71] | ≥ 90 | ≥ 90 | – |
| CC(C)(C)CC(=O)N1CCN(c2ccnc(O[C@H]3CC[C@H](Nc4ccc([N+](=O)[O-])c(C(F)(F)F)c4)CC3)c2)CC1 [Compound 25] | ≥ 90 | ≥ 90 | – |
| CC(C)(C)CC(=O)N1CCN(c2cc(O[C@H]3CC[C@H](Nc4ccc([N+](=O)[O-])c(C(F)(F)F)c4)CC3)ccn2)CC1 [Compound 33] | ≥ 90 | ≥ 90 | – |
| CC(C)(C)OC(=O)N1CCN(c2ccnc(O[C@H]3CC[C@H](Nc4ccc(C#N)c(C(F)(F)F)c4)CC3)c2)CC1 [Compound 59] | ≥ 90 | ≥ 90 | – |
| O=[N+]([O-])c1ccc(N[C@H]2CC[C@H](Oc3cncc(N4CCN(Cc5nc6cc(C(F)(F)F)ccc6s5)CC4)c3)CC2)cc1C(F)(F)F [Compound 62] | – | ≥ 90 | – |
| CC(C)(C)CN1CCN(c2cncc(O[C@H]3CC[C@H](Nc4ccc([N+](=O)[O-])c(C(F)(F)F)c4)CC3)c2)CC1 [Compound 54] | – | ≥ 90 | inhibition at 10 µM ([1]; 10 μM, 24 hours): ≥ 90% |
| CC(C)(C)CN1CCN(c2ccnc(O[C@H]3CC[C@H](Nc4ccc([N+](=O)[O-])c(C(F)(F)F)c4)CC3)c2)CC1 [Compound 84] | – | ≥ 90 | – |
| O=C(CC1CCCC1)N1CCN(c2cncc(O[C@H]3CC[C@H](Nc4ccc(S(=O)(=O)C(F)(F)F)cc4)CC3)c2)CC1 [Compound 193] | – | ≥ 90 | – |
| O=[N+]([O-])c1ccc(N[C@H]2CC[C@H](Oc3cncc(N4CCN(C(=S)Nc5ccc(C(F)(F)F)cc5)CC4)c3)CC2)cc1C(F)(F)F [Compound 88] | – | ≥ 90 | – |
| O=[N+]([O-])c1ccc(N[C@H]2CC[C@H](Oc3cncc(N4CCN(S(=O)(=O)C(F)(F)F)CC4)c3)CC2)cc1C(F)(F)F [Compound 63] | – | ≥ 90 | – |
| CCCOC(=O)N1CCN(c2ccnc(O[C@H]3CC[C@H](Nc4ccc(C#N)c(C(F)(F)F)c4)CC3)c2)CC1 [Compound 74] | – | ≥ 90 | – |
